Data on seven compounds can be found in publication PMC11506018, “Targeting PARP-1 and DNA Damage Response Defects in Colorectal Cancer Chemotherapy with Established and Novel PARP Inhibitors” (Cancers, 2024).

Several values for one entry are separate records, joined by “and”; a condition that tells them apart may be missing. Equal entries are not always repeated. Where two headings read alike, the source gives them in different places.

Data set [1] relates to human colonic epithelial cells (HCEC). As to the kind of experiment: cell viability, resazurin reduction assay, HCEC. Conditions: 72 h; for IC50: read-out: IC50-values HCEC. (In general: The colour change of resazurin is a common sign of viable cells or microbes.)
Experimental: (§1) To assess the cytotoxicity of newly developed PARP inhibitors, cells were cultivated in translucent 96-well plates overnight and treated with PARP inhibitors or cytostatic drugs for 72 h. For the assessment of synergistic activity, cells were pretreated with the inhibitors for 2 h, before the inhibitor or cytostatic drug was added. Cell viability was assessed by the resazurin reduction assay (RRA) as described previously [41], and fluorescence was measured using a Spark® Multi-well reader (Tecan, Crailsheim, Germany). IC50 values were calculated using GraphPad Prism 9.0 software (GraphPad Software Inc., Boston, MA, USA). To this end, concentrations were transformed into the log scale, plotted against the cell viability and the curve was fitted by nonlinear regression with variable slope, providing the IC50 values.
The next data set deals with Caco-2 cells. As to the kind of experiment: cell viability, resazurin reduction assay, Caco-2. Conditions: for IC50: Homo sapiens, read-out: IC50-values Caco-2.
The test system of another data set is DLD-1 WT cells. As to the kind of experiment: cell viability, resazurin reduction assay, DLD-1 WT. Conditions: for IC50: read-out: IC50-values DLD-1 WT.
For a further data set, the system named is HCT116 WT cells. As to the kind of experiment: cell viability, resazurin reduction assay, HCT116 WT. Conditions: for IC50: read-out: IC50-values HCT116 WT.
The subject of a further data set is DLD-1 ATRs/s cells. As to the kind of experiment: cell viability, resazurin reduction assay, DLD-1 ATRs/s. Conditions: for IC50: read-out: IC50-values DLD-1 ATRs/s.
Another data set relates to HCT116 BRCA2−/− cells. As to the kind of experiment: cell viability, resazurin reduction assay, HCT116 BRCA2-/-. Conditions: for IC50: read-out: IC50-values HCT116 BRCA2−/−.
A further data set deals with HCT116 PARP-1+/+ cells. As to the kind of experiment: cell viability, resazurin reduction assay, HCT116 PARP-1+/+. The conditions noted are these: for IC50: read-out: IC50-values HCT116 PARP1+/+.
Another data set concerns HCT116 PARP-1−/− cells. As to the kind of experiment: cell viability, resazurin reduction assay, HCT116 PARP-1-/-. The conditions noted are these: for IC50: read-out: IC50-values HCT116 PARP1−/−; for higher sensitivity of HCT116 PARP-1−/− than PARP-1+/+: from IC50 values of Table 1.
Data set [2] deals with γH2AX formation in HCT116 WT cells. As to the kind of experiment: γH2AX Western blot in HCT116 WT cells. Conditions: X17613 50 µM or IT 0.25 µM, 24 h. (A western blot detects proteins with antibodies after separation by electrophoresis.)
Experimental: (§2) Quantification of chromatin-trapped PARP-1 was performed as described elsewhere [42]. Briefly, HCT116 cells were harvested, and pellets were lysed in buffer containing 150 mM KCl, 2.5 mM MgCl2, 50 mM HEPES pH 7.8, 5 mM EDTA pH 8, 3 mM dithiothreitol (DTT), 10% glycerol, 0.5% Triton X-100, and freshly added protease inhibitor cocktail (Roche) for 15 min on ice. The chromatin-bound protein fraction was isolated by centrifugation at 4 °C for 15 min and 16.000× g. After transferring the soluble fraction, the chromatin-containing pellet was washed twice in lysis buffer and sonicated for 3 min. […] The proteins of interest were detected using a c300 chemiluminescence imager (Azure Biosystems, Dublin, CA, USA). […] The signal intensity (e.g., PARP-1 or γH2AX) of each lane was quantified and subsequently normalized to the respective loading control as indicated in the figure legends, which was analyzed in each experiment. […]
Data set [3] has as its system γH2AX formation in HCT116 BRCA2−/− cells. As to the kind of experiment: γH2AX Western blot in HCT116 BRCA2-/- cells. The conditions noted are these: IT 0.25 µM, 24 h, compared to WT.
Experimental: as §2
The target of data set [4] is T1, PARP-1 (Homo sapiens, UniProt P09874). As to the kind of experiment: chemiluminescence-based PARP-1 assay kit (recombinant enzyme). Conditions: IC50 PARP-1 screening assay kit, recombinant PARP-1, 1 h RT, n = 2.
T1 sequence (P09874 whole entry): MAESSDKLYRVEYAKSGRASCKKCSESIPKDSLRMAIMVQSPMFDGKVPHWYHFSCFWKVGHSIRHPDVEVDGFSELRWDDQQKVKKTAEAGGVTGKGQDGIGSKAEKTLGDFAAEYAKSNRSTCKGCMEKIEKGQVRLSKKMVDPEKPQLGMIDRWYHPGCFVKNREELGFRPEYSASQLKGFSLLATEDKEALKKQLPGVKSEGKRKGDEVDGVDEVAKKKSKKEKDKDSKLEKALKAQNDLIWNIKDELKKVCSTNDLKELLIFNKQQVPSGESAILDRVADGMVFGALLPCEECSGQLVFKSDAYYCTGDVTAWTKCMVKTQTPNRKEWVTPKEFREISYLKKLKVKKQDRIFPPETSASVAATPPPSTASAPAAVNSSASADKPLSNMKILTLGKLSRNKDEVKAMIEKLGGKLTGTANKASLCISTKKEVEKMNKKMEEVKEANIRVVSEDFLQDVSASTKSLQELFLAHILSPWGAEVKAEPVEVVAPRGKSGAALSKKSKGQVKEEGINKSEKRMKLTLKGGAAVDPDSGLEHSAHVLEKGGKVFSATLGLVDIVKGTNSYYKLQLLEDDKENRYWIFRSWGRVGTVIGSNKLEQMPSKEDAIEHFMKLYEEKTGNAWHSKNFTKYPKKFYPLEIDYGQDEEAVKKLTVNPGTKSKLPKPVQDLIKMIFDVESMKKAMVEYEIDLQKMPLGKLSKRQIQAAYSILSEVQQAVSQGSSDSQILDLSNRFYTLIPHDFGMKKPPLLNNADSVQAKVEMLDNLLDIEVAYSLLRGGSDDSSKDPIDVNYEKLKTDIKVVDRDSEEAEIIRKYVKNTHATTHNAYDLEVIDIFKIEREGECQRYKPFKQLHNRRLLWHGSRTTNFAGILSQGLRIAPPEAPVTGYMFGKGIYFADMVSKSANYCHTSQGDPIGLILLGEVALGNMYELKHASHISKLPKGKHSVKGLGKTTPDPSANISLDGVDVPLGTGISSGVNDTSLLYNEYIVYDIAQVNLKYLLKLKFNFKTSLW
Text: Twelve compounds were screened regarding their ability to inhibit PARP-1 enzyme activity in vitro. Therefore, we utilized a chemiluminescence-based PARP-1 assay kit (BPS Bioscience, San Diego, CA, USA) and performed two independent experiments according to the manufacturer’s instructions. Briefly, non-transparent 96-well plates were coated with histones overnight. […] After adding activated DNA and biotinylated NAD^+, the ADP-ribosylation reaction was initiated by the addition of PARP-1 enzyme and incubated at RT for 1 h. Quantification of biotinylated PAR was conducted by using Streptavidin–HRP and subsequent ECL-based detection of chemiluminescence, applying a Spark® multiplate reader (Tecan, Crailsheim, Germany).
The test system of data set [5] is H2O2-induced PAR formation (PARP-1 activity) in HCT116 cells. As to the kind of experiment: PAR immunofluorescence: H2O2-induced PAR formation in HCT116 cells. The data set is classed as cell-based, human. Conditions: for IC50: Homo sapiens, HCT-116, 2 h pretreatment, 1 mM H2O2 5 min, unit inferred, read-out: IC50 PAR formation in HCT116 cells (Figure A3A); for PAR signal: concentration of 100 nM; for PAR signal / PAR formation: H2O2-induced; for PAR formation: 10 µM / highest concentration. On the procedure: Cells lines were re-authenticated by p53, PARP-1, ATR, and BRCA2 immunoblotting, by their characteristic differential response to genotoxic agents and their typical cell morphology. HCT116, HCT116 BRCA2^−/−, DLD-1 ATR^+/+ and DLD-1 ATR^s/s cells were maintained in DMEM, whereas HCT116 PARP-1^+/+ and HCT116 PARP-1^−/− cells were maintained in RPMI1640 containing 10% FCS and 1% penicillin/streptomycin in a humidified atmosphere at 37 °C and 5% CO2. Caco-2 cells were cultured in MEM with 10% FCS, 1% penicillin/streptomycin, and nonessential amino acids. […] The media and supplements were obtained from PAN-Biotech (Aidenbach, Germany) and Thermo Fisher Scientific (Darmstadt, Germany). Cell culture was frequently tested for contamination with mycoplasma by PCR using the Venor® GeM Classic kit (Minerva Biolabs, Berlin, Germany) and immunofluorescence microscopy with nuclear staining. […] Cells were exposed for 1 h for the quantification of PARP-1 trapping or 2 h for assessing the inhibitory potential by confocal fluorescence microscopy. […] If the PARPi treatment was conducted in combination with cytostatic drugs for 24 h (γH2AX Western blot analysis) or 72 h (cytotoxicity testing), the PARPi was added 2 h prior.
The activity of potential PARP inhibitors was tested in a cell model using immunofluorescence-based detection of PAR essentially as reported previously. HCT116 cells were seeded in Ibidi 12-well chamber slides and cultivated until they reached 70% confluence. Induction of PARylation was achieved by adding 1 mM H2O2 in PBS/1 mM MgCl2 for 5 min at 37 °C. Cells were washed with PBS/1 mM MgCl2 and fixed by adding 4% PFA at RT. After 20 min, cells were washed with PBS/100 mM glycine for 1 min and permeabilized with PBS/0.3% Triton X-100 for 3 min. Blocking of the cells was conducted by adding PBS/0.05% Tween containing 5% powdered milk for 1 h at RT. […] Cells were washed and an Alexa488-coupled secondary antibody was added for 1 h at RT. The slides were mounted with VectaShield containing DAPI and analyzed by confocal microscopy using a Zeiss Axio Observer 7 microscope (Oberkochen, Germany) equipped with a 63× oil objective (Plan-Apochromat 63×/1.40 DIC M27) and a LSM900 confocal laser scanner (Zeiss, Oberkochen, Germany). Images were analyzed using Zeiss Zen software version 3.4 and ImageJ v1.53t (NIH, Bethesda, MD, USA). Briefly, nuclei were identified based on the DAPI signal and marked as regions of interest (ROI). Subsequently, the mean PAR signal in the identified ROI was quantified in each image and exported for further analysis. For the individual experiments, the mean PAR intensity was averaged for each treatment group and the control was set to 100%. Only images with a minimum of 4 cells were included in the analysis and at least 5 images were assessed per treatment group. The experiments were conducted in at least 3 biological replicates. To derive IC50 concentrations, relative PAR levels of the experiments were transferred to GraphPad Prism 9.0 Software (GraphPad Software Inc., Boston, MA, USA) for a nonlinear regression analysis applying a three-parameter model.

The target of data set [6] is T1, PARP-1. As to the kind of experiment: chromatin retention assay (PARP-1 trapping) in HCT116 cells. The conditions noted are these: HCT116, MMS 1 mM 1 h with inhibitor.
Experimental: as §2
Data set [7] addresses T1, PARP-1. As to the kind of experiment: chromatin retention assay (PARP-1 trapping) in Caco-2 cells. Conditions: Caco-2, MMS 1 mM 1 h with inhibitor.
Experimental: as §2

Experimental for DLD-1 ATRs/s cells: (§3) To assess the cytotoxicity of newly developed PARP inhibitors, cells were cultivated in translucent 96-well plates overnight and treated with PARP inhibitors or cytostatic drugs for 72 h. […] Cell viability was assessed by the resazurin reduction assay (RRA) as described previously [41], and fluorescence was measured using a Spark® Multi-well reader (Tecan, Crailsheim, Germany). IC50 values were calculated using GraphPad Prism 9.0 software (GraphPad Software Inc., Boston, MA, USA). To this end, concentrations were transformed into the log scale, plotted against the cell viability and the curve was fitted by nonlinear regression with variable slope, providing the IC50 values.
Experimental for DLD-1 WT cells: as §3
Experimental for HCT116 PARP-1+/+ cells: as §1
Experimental for HCT116 PARP-1−/− cells: as §1

As to `O=c1[nH]cc(F)c(=O)[nH]1` [5-FU, 5-fluorouracil], the IC50 in data set [1] (Homo sapiens, HCEC) worked out at 26200 nM; in the data set with DLD-1 WT cells (Homo sapiens, DLD-1, 72 h), 350 nM; in the data set on HCT116 WT cells (Homo sapiens, HCT-116, 72 h), 500 nM; in the data set on DLD-1 ATRs/s cells (Homo sapiens, DLD-1, 72 h) it was 220 nM; with HCT116 BRCA2−/− cells (Homo sapiens, HCT-116, 72 h) it was 340 nM; in the data set on HCT116 PARP-1+/+ cells (Homo sapiens, HCT-116, 72 h), 240 nM. Besides, in the data set on HCT116 PARP-1−/− cells (Homo sapiens, HCT-116, 72 h), the IC50 came out at 150 nM. Besides, the “IC50-values Caco-2” value with Caco-2 cells (72 h, RRA) is reported as “-”. Further, the “higher sensitivity of HCT116 PARP-1−/− than PARP-1+/+” value (“higher sensitivity” below) in the data set with HCT116 PARP-1−/− cells is “less affected”.

`CCc1c2c(nc3ccc(OC(=O)N4CCC(N5CCCCC5)CC4)cc13)-c1cc3c(c(=O)n1C2)COC(=O)[C@]3(O)CC` [IT, irinotecan]: the “γH2AX, mono-treatment” value is reported as “significant induction of γH2AX” in [2] and “slightly higher γH2AX levels” in [3]. Further, the IC50 was found to be 2950 nM in data set [1] (Homo sapiens, HCEC); 66500 nM with Caco-2 cells (Caco-2, 72 h); 4190 nM in the data set with DLD-1 WT cells (Homo sapiens, DLD-1, 72 h); 1280 nM in the data set with HCT116 WT cells (Homo sapiens, HCT-116, 72 h); 2990 nM in the data set on DLD-1 ATRs/s cells (Homo sapiens, DLD-1, 72 h); 160 nM in the data set on HCT116 BRCA2−/− cells (Homo sapiens, HCT-116, 72 h). In addition, the IC50 was 930 nM in the data set on HCT116 PARP-1+/+ cells (Homo sapiens, HCT-116, 72 h) and 350 nM in the data set with HCT116 PARP-1−/− cells (Homo sapiens, HCT-116, 72 h). The “higher sensitivity” value in the data set on HCT116 PARP-1−/− cells is on record as 2.5–3 fold.

For the compound `O=C1[O][Pt]2([NH][C@@H]3CCCC[C@H]3[NH]2)[O]C1=O` [OXA, oxaliplatin], the IC50 worked out at 40700 nM in [1] (RRA); 8770 nM in the data set with DLD-1 WT cells (72 h, RRA); 1190 nM with HCT116 WT cells (72 h, RRA); 9080 nM in the data set with DLD-1 ATRs/s cells (72 h, RRA); 250 nM in the data set with HCT116 BRCA2−/− cells (72 h, RRA); 710 nM with HCT116 PARP-1+/+ cells (72 h, RRA). The IC50 with HCT116 PARP-1−/− cells (72 h, RRA) is 280 nM. In addition, the “higher sensitivity” value in the data set on HCT116 PARP-1−/− cells was 2.5–3 fold.

Regarding `COC(=O)C1CC(=O)c2cccc3[nH]c(C)c1c23` (centres unmarked) [X17616], the IC50 on PARP-1 [4] is 9200 nM and 9170 nM.

Turning to `CNC(=O)C1CC(=O)c2cccc3[nH]c(C)c1c23` (centres unmarked) [X17618, N,2-dimethyl-5-oxo-1,3,4,5-tetrahydrobenzo[cd]indole-3-carboxamide], the IC50 in data set [5] was 5.38 nM; in [1] (Homo sapiens, HCEC), greater than 50000 nM; with Caco-2 cells (Caco-2, 72 h) it was greater than 50000 nM; in the data set on DLD-1 WT cells (Homo sapiens, DLD-1, 72 h), greater than 50000 nM; in the data set on HCT116 WT cells (Homo sapiens, HCT-116, 72 h), greater than 50000 nM; with DLD-1 ATRs/s cells (Homo sapiens, DLD-1, 72 h) it was greater than 50000 nM. The IC50 with HCT116 BRCA2−/− cells (Homo sapiens, HCT-116, 72 h) was greater than 50000 nM; in the data set with HCT116 PARP-1+/+ cells (Homo sapiens, HCT-116, 72 h), greater than 50000 nM; with HCT116 PARP-1−/− cells (Homo sapiens, HCT-116, 72 h), greater than 50000 nM; at PARP-1 [4] it was 2840 nM. For the same compound, the PAR signal entry in data set [5] is given as “significant decrease in the PAR signal”. For the same compound, the “cell viability, monotreatment” value in data set [1] (nonmalignant HCEC, up to 50 µM) is listed as “no effect on HCEC”; in the data set on Caco-2 cells (Caco-2, 72 h, up to 50 µM), “no impact on cell viability at all”; in the data set on DLD-1 WT cells (DLD-1 WT, 72 h) it was “no effects”; in the data set on HCT116 WT cells (HCT116 WT, 72 h, up to 50 µM) it was “no impact”; in the data set with DLD-1 ATRs/s cells (DLD-1 ATRs/s, 72 h), “no effects”; with HCT116 PARP-1+/+ cells (HCT116 PARP-1+/+, 72 h, up to 50 µM) it was “Neither X17613 nor X17618 decreased cell viability”. Moreover, the “cell viability, monotreatment” value in the data set with HCT116 PARP-1−/− cells (HCT116 PARP-1−/−, 72 h, up to 50 µM) was “Neither X17613 nor X17618 decreased cell viability”. The “sensitization towards the anticancer drugs” value in the data set on Caco-2 cells (Caco-2, IT 10 µM, 5-FU 5 µM, OXA 1 µM) is “no sensitization towards the anticancer drugs”. The decrease of viability result in the data set on HCT116 BRCA2−/− cells (HCT116 BRCA2−/−, highest test concentration of 50 µM, 72 h) was “about 25%”. At PARP-1 [6], the “chromatin-bound PARP-1 (PARP-1 trapping)” value was “No enrichment of PARP-1 in the chromatin fraction”. Moreover, the PARP-1 trapping entry at PARP-1 [7] was “no effects were detected”. Also, the “cell viability in combination with cytostatics” value is “did not affect the cytotoxicity of the anticancer drugs” in the data set with HCT116 PARP-1+/+ cells (HCT116 PARP-1+/+, IT 0.5 µM, 5-FU 0.25 µM, OXA 0.5 µM, 72 h, PARPi added 2 h prior) and “did not affect the cytotoxicity of the anticancer drugs” with HCT116 PARP-1−/− cells (HCT116 PARP-1−/−, IT 0.5 µM, 5-FU 0.25 µM, OXA 0.5 µM, 72 h, PARPi added 2 h prior).

On to `Cc1[nH]c2cccc3c2c1C(C(=O)NCc1ccco1)CC3=O` (centres unmarked) [X17620, N-(furan-2-ylmethyl)-2-methyl-5-oxo-1,3,4,5-tetrahydrobenzo[cd]indole-3-carboxamide], for which, in data set [5], the PAR formation entry is on record as “no effect on PAR formation”. Besides, the IC50 at PARP-1 [4] came to 482 nM.

As to `Cc1[nH]c2cccc3c2c1C(C(=O)N1CCOCC1)CC3=O` (centres unmarked) [X17621, 2-methyl-3-(morpholine-4-carbonyl)-3,4-dihydrobenzo[cd]indol-5(1H)-one], in [5], the PAR formation entry was “did not entirely inhibit PAR formation”, the IC50 was found to be 16.7 nM and the PAR signal result is on record as “significant decrease in the PAR signal”. Moreover, the IC50 on PARP-1 [4] worked out at 1630 nM.
